This is an account of results in patent publication US5668144A, “1-azabicyclopheptane derivatives” (American Home Products Corporation, priority 1996, dated 1997).

Molecules are shown by their SMILES.

One data set deals with muscarinic receptors. Conditions: disclosed in earlier patents; cited from earlier work.
For data set [1] the following is noted: in vivo; cited from earlier work.
Data set [2] concerns patients with mild to moderate Alzheimer's Disease. Conditions: cited from earlier work; for memory in patients (in words): mild to moderate Alzheimer's Disease.
Data set [3] deals with scopolamine treated animals. In words: Reversal of scopolamine hyperactivity, mouse swim tank test. The format is in vivo, Male CFW mice. Conditions: ip, scopolamine HBr 0.3 mg/kg, read-out: minimum effective dose (MED), reversal of hyperactivity of scopolamine treated animals. The procedure: The compound of Example 3, representative of the other compounds of this invention, was also tested in accordance with the procedure of Symons et al, Soc. Neuroscience Abstracts 12:2, 897 (1986) in which Male CFW mice, 25 to 35 grams in weight are given the test compound in suitable vehicle plus 0.3 mg/kg scopolamine. HBr in suitable vehicle, i.p.(3 groups of 12 animals each) or vehicle alone (1 group of 12 animals ) or vehicle plus scopolamine. HBr (1 group of 12 animals). The mice are placed in a swim tank, individually, containing 10 cm H2 O for a period of 5 minutes and the distance each animal swims is recorded.

Data set [4] concerns the target T1, M1 acetylcholine receptors (Homo sapiens, UniProt P11229).
T1 sequence (P11229 1-460): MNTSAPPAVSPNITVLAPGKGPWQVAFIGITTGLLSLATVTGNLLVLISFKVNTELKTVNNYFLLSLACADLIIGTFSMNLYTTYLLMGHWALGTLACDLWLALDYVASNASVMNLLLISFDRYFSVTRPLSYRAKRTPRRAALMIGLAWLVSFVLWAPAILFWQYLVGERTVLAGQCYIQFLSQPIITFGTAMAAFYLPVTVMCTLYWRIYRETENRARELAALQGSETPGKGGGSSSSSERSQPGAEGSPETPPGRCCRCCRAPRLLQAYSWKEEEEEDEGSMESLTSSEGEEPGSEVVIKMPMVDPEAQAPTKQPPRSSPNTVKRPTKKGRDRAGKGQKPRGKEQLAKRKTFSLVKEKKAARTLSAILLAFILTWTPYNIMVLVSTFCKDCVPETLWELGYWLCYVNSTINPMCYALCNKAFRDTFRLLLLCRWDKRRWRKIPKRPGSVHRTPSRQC
Briefly: PI hydrolysis stimulation in CHO cells expressing M1 acetylcholine receptors (muscarinic m1 agonism). The format is cell-based. Conditions: exo versus endo azacycloheptane analog.

Data set [5] relates to scopolamine disrupted rat performance. In words: Eight arm radial maze, reversal of scopolamine disrupted rat performance. The format is in vivo, Sprague-Dawley male rats. Conditions: ip, test compound i.p., scopolamine HBr 0.3 mg/kg s.c., read-out: minimum effective dose (MED), reversal of scopolamine disrupted rat performance. The procedure:
The compound of Example 3 was also tested in the eight arm radial maze test procedure in which Sprague-Dawley male rats at 85% of their free feeding weight are trained to obtain two food pellets from food cups placed at the ends of four of the eight arms radiating from a circular central area of the maze, in a five minute period. After training to a level of error (return to a previously entered arm is error) equal to or less than 2, the rats performance is disrupted with scopolamine HBr (0.3 mg/kg, s.c.) and test compound dosage (i.p.). The number of errors are then determined and compared with control receiving scopolamine alone.

For data set [6] the following is noted: quaternary ammonium group; cited from earlier work.
A further data set deals with m1 receptors. Conditions: cited from earlier work.

With `CNC(=O)OC1CN2CCCC1C2` (stereo not drawn) [exo-1-azabicyclo[3.2.1]oct-6-yl-N-methylcarbamate], the “muscarinic activity (in words)” value with muscarinic receptors was “muscarinic activity”.
As for `COC(=O)C1=CCCN(C)C1` [Arecoline], in data set [1], the “half-life (in words)” value is “short”. In addition, in data set [2], the “memory in patients (in words)” value is given as “memory improvement”.
`CNC(=O)O[C@@H]1CN2CC[C@@H]1C2` (single isomer, unassigned) [Example 3, (-)-(exo)-Methylcarbamic acid 1-aza-bicyclo[2.2.1]hept-3-yl ester]: the minimal effective dose in data set [3] was determined as 30 mg/kg.
For the compound `CNC(=O)O[C@@H]1CN2CC[C@@H]1C2` (relative stereo) [Example 1, (exo)-Methylcarbamic acid 1-aza-bicyclo[2.2.1]hept-3-yl ester], the “muscarinic agonism (in words)” value in data set [4] was “enhanced muscarinic agonism”.
As for `CN(C)C(=O)OC1CC2CCCN(C2)C1` (stereo not drawn) [exo-1-azabicyclo[3.3.1]non-3-yl-N,N-dimethylcarbamate], the “muscarinic activity (in words)” value in the data set with muscarinic receptors is “muscarinic activity”.
Consider `CNC(=O)O[C@@H]1CN2CC[C@H]1C2` (relative stereo) [endo azacycloheptane analog], for which, in data set [4], the “muscarinic agonism (in words)” value is on record as “not”.
As to `CNC(=O)O[C@@H]1CN2CC[C@@H]1C2` (single isomer, unassigned) [Example 2, (+)-(exo)-Methylcarbamic acid 1-aza-bicyclo[2.2.1]hept-3-yl ester], the minimal effective dose in data set [5] was determined as 1 mg/kg.
Turning to `C[C@@H]1O[C@H](C[N+](C)(C)C)C[C@H]1O` [muscarine], the “ability to enter the CNS (in words)” value in data set [6] was “not able to enter the CNS”. The “activation of m1 receptors (in words)” value in the data set with m1 receptors is “able to fully activate m1 receptors”.
For `CNC(=O)OC1CC2CCCN(C2)C1` (stereo not drawn) [exo-1-azabicyclo[3.3.1]non-3-yl-N-methylcarbamate], the “muscarinic activity (in words)” value with muscarinic receptors is recorded as “muscarinic activity”.
Take `C[N+](C)(C)CCOC(N)=O` [carbachol]: the “ability to enter the CNS (in words)” value in data set [6] is recorded as “not able to enter the CNS”.
As for `Nc1c2c(nc3ccccc13)CCCC2` [tacrine], the “adverse side effects (in words)” value in data set [2] (especially at the higher doses where it is most effective) is on record as “adverse side effects especially at the higher doses”. Also, in data set [2], the “memory in patients (in words)” value was “improvement in memory”.
